We go through 36 molecules from ChEMBL document CHEMBL1130739 (Bioorg Med Chem Lett, 1998).

The target in experiment [1] is Dihydroorotate dehydrogenase (quinone), mitochondrial (Homo sapiens, UniProt Q02127). Briefly: Inhibition of human recombinant dihydroorotate dehydrogenase (DHODase).
Experiment [2] can be described thus: Concentration required to inhibit proliferation in a mixture of human lymphocytes using mixed lymphocyte reaction test. The class given is functional, cell-based.

Sequence of Dihydroorotate dehydrogenase (quinone), mitochondrial (Q02127 whole entry): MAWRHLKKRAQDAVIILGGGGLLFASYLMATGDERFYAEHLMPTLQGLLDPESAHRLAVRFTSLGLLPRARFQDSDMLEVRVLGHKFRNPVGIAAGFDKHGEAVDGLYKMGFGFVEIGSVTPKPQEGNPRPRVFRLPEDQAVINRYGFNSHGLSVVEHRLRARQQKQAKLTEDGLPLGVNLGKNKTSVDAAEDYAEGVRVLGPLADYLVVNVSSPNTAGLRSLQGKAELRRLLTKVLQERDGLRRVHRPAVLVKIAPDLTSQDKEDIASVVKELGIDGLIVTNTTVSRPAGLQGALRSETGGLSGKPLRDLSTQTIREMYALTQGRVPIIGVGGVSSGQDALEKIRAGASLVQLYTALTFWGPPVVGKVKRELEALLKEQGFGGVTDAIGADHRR

Broadly, the Ki is a measure of affinity in units of concentration, obtained from inhibition or displacement. A word on the IC50: it is the concentration that gives 50% inhibition. Consider `O=C(O)c1c2c(nc3ccc(F)cc13)-c1ccc(-c3ccccc3)nc1CC2`, for which the Ki in experiment [1] came to 409 nM. Moreover, in experiment [2], the IC50 worked out at 100 nM.
On the same counts, the results for `Cc1cccc(-c2ccc3c(c2)SCc2c-3nc3ccc(F)cc3c2C(=O)O)c1` are 37 nM and 14 nM.
In the case of `Cc1ccccc1-c1ccc2c(c1)CSc1c-2nc2ccc(F)cc2c1C(=O)O`, in experiment [1], the Ki turned out to be 25 nM. Further, the IC50 in experiment [2] is 65 nM.
Consider `Cc1cccc(-c2ccc3c(n2)CCc2c-3nc3ccc(F)cc3c2C(=O)O)c1`, for which, in experiment [1], the Ki was found to be 81 nM. The IC50 in experiment [2] came to 180 nM.
Consider `O=C(O)c1c2c(nc3ccc(F)cc13)-c1ccc(-c3ccccc3)cc1CC2`, for which, in experiment [1], the Ki stood at 8.3 nM. For the same molecule, in experiment [2], the 50% inhibitory concentration (IC50) stood at 30 nM.
Consider `O=C(O)c1c2c(nc3ccc(F)cc13)-c1ccc(-c3ccccc3)cc1SC2`, for which the Ki in experiment [1] turned out to be 17 nM. For the same molecule, the IC50 in experiment [2] turned out to be 16 nM.
For `O=C(O)c1c2c(nc3ccc(F)cc13)-c1cc(-c3ccccc3)ccc1CC2`, in experiment [1], the Ki was > 1000 nM. The 50% inhibitory concentration (IC50) in experiment [2] is > 5000 nM.
On the same counts, the results for `Cc1cccc(-c2ccc3c(c2)CCc2c-3nc3ccc(F)cc3c2C(=O)O)c1` are 59 nM and 60 nM.
Take `O=C(O)c1c2c(nc3ccc(F)cc13)-c1ccc(-c3cccc(C(F)(F)F)c3)cc1CC2`: in experiment [1], the Ki turned out to be 43 nM. Besides, the IC50 in experiment [2] came to 18 nM.
With `O=C(O)c1c2c(nc3ccc(C(F)(F)F)cc13)-c1ccc(-c3ccccc3)cc1CC2`, the Ki in experiment [1] is 31 nM. Moreover, the concentration for half-maximal inhibition (IC50) in experiment [2] was 52 nM.
As for `Cc1ccc(-c2ccc3c(c2)SCc2c-3nc3ccc(F)cc3c2C(=O)O)cc1`, the Ki in experiment [1] was determined as 13 nM. Besides, the IC50 in experiment [2] came to 50 nM.
Consider `COc1ccccc1-c1ccc2c(c1)CCc1c-2nc2ccc(F)cc2c1C(=O)O`, for which, in experiment [1], the inhibition constant (Ki) stood at 20 nM. Besides, the IC50 in experiment [2] turned out to be 50 nM.
Regarding `COc1cccc(-c2ccc3c(n2)CCc2c-3nc3ccc(F)cc3c2C(=O)O)c1`, the Ki in experiment [1] was 160 nM. In addition, in experiment [2], the IC50 came to 300 nM.
Take `Cc1ccc(-c2ccc3c(c2)CSc2c-3nc3ccc(F)cc3c2C(=O)O)cc1`: in experiment [1], the inhibitory constant (Ki) was determined as 218 nM. Further, the 50% inhibitory concentration (IC50) in experiment [2] turned out to be 350 nM.
For the molecule `Cc1ccc(-c2ccc3c(c2)CCc2c-3nc3ccc(F)cc3c2C(=O)O)cc1`, the inhibition constant Ki in experiment [1] turned out to be 40 nM. The IC50 in experiment [2] is 28 nM.
For the molecule `O=C(O)c1c2c(nc3ccc(F)cc13)-c1cccc(-c3ccccc3)c1CC2`, the Ki in experiment [1] was 300 nM. Further, the concentration for half-maximal inhibition (IC50) in experiment [2] was > 5000 nM.
Turning to `COc1cccc(-c2ccc3c(c2)CCc2c-3nc3ccc(F)cc3c2C(=O)O)c1`, the inhibitory constant (Ki) in experiment [1] came to 25 nM. Besides, the IC50 in experiment [2] is 10 nM.
The matching figures for `O=C(O)c1c2c(nc3ccc(F)cc13)-c1ccc(-c3ccsc3)cc1CC2`: 52 nM and 170 nM.
Turning to `O=C(O)c1c2c(nc3ccc(F)cc13)-c1ccc(-c3ccc(C(F)(F)F)cc3)cc1CC2`, the Ki in experiment [1] came out at 370 nM. The IC50 in experiment [2] was determined as 850 nM.
Turning to `O=C(O)c1c2c(nc3ccc(F)cc13)-c1ccc(-c3nccs3)cc1CC2`, the Ki in experiment [1] is > 180 nM. For the same molecule, the concentration for half-maximal inhibition (IC50) in experiment [2] is > 5000 nM.
Turning to `O=C(O)c1c2c(nc3ccc(F)cc13)-c1ccc(-c3ccccc3)cc1OC2`, the Ki in experiment [1] was determined as 48 nM. In addition, the IC50 in experiment [2] stood at 220 nM.
Turning to `Cc1cccc(-c2ccc3c(c2)CSc2c-3nc3ccc(F)cc3c2C(=O)O)c1`, in experiment [1], the Ki worked out at 135 nM. Besides, in experiment [2], the IC50 is 170 nM.
As for `O=C(O)c1c2c(nc3ccc(F)cc13)-c1ccc(-c3ccccc3)cc1S(=O)(=O)C2`, the Ki in experiment [1] was determined as 139 nM. In addition, the IC50 in experiment [2] came to 8500 nM.
Take `O=C(O)c1c2c(nc3ccc(F)cc13)-c1ccc(-c3ccccc3)cc1CO2`: the Ki in experiment [1] is > 204 nM. For the same molecule, the IC50 in experiment [2] was determined as 380 nM.
As for `O=C(O)c1c2c(nc3ccc(F)cc13)-c1ccc(-c3ccccc3F)cc1CC2`, the Ki in experiment [1] is 34 nM. Further, the IC50 in experiment [2] was 40 nM.
Regarding `O=C(O)c1c2c(nc3ccc(F)cc13)-c1ccc(-c3ccccc3)cc1CS2`, the Ki in experiment [1] is 170 nM. In experiment [2], the 50% inhibitory concentration (IC50) amounted to 310 nM.
`Cc1ccccc1-c1ccc2c(c1)CCc1c-2nc2ccc(F)cc2c1C(=O)O`: the inhibition constant (Ki) in experiment [1] came to 10 nM. In addition, the IC50 in experiment [2] came to 30 nM.
The matching figures for `Cc1ccccc1-c1ccc2c(c1)SCc1c-2nc2ccc(F)cc2c1C(=O)O`: 27 nM and 0.6 nM.
Take `O=C(O)c1c2c(nc3ccc(F)cc13)-c1cnc(-c3ccccc3)nc1CC2`: the Ki in experiment [1] was determined as 380 nM. The IC50 in experiment [2] is 600 nM.
As for `O=C(O)c1c2c(nc3ccc(F)cc13)-c1ccc(-c3ccccc3C(F)(F)F)cc1CC2`, the Ki in experiment [1] worked out at 40 nM. Also, the IC50 in experiment [2] is 50 nM.
As to `O=C(O)c1c2c(nc3ccc(F)cc13)-c1sc(-c3ccccc3)cc1CC2`, the Ki in experiment [1] was > 182 nM. Also, in experiment [2], the IC50 is > 10000 nM.
On the same counts, the results for `O=C(O)c1c2c(nc3ccc(F)cc13)-c1cccc(Oc3ccccc3)c1CC2` are 962 nM and > 5000 nM.
On the same counts, the results for `O=C(O)c1c2c(nc3ccc(F)cc13)-c1ccc(-c3ccccc3)cc1[S+]([O-])C2` (stereo unspecified) are 206 nM and 240 nM.
Regarding `O=C(O)c1c2c(nc3ccc(F)cc13)-c1ccc(-c3ccoc3)cc1CC2`, the inhibition constant (Ki) in experiment [1] stood at 190 nM. In experiment [2], the IC50 was 280 nM.
In the case of `COc1ccc(-c2ccc3c(c2)CCc2c-3nc3ccc(F)cc3c2C(=O)O)cc1`, the Ki in experiment [1] was found to be 55 nM. Moreover, the IC50 in experiment [2] is 60 nM.
Regarding `Cc1c(-c2ccc(-c3ccccc3F)cc2)nc2ccc(F)cc2c1C(=O)O` [BREQUINAR SODIUM], the IC50 in experiment [2] is 15 nM.
